Positions count from the first letter of the chain named. Entries after “also recorded” stand apart in the source; their conditions may differ.
How the values were obtained:
sGC = biological target: T1, sGC (Homo sapiens, UniProt Q02108+Q02153); experiment: Earlier laboratory observation of effect on sGC (data not shown); format: biochemical; details: low millimolar concentrations
T1 sequence (Q02108 1-690): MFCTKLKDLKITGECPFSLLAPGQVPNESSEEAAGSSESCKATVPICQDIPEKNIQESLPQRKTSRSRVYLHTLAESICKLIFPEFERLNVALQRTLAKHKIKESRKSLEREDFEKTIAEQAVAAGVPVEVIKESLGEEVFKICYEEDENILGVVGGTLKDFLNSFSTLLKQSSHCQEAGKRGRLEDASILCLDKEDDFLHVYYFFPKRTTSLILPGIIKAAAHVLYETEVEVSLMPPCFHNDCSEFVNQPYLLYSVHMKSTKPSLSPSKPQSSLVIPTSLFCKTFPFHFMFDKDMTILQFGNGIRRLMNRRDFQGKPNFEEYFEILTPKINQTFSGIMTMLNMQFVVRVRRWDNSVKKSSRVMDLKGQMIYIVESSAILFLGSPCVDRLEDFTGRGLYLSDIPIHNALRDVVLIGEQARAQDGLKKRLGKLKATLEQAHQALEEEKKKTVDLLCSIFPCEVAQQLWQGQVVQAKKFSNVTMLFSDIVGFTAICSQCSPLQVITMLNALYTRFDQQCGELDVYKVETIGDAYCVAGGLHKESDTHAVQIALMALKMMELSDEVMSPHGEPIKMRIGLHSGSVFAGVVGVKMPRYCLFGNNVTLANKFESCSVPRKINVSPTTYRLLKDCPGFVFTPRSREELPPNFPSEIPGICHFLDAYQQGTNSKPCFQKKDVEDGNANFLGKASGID
T1 sequence (Q02153 1-619): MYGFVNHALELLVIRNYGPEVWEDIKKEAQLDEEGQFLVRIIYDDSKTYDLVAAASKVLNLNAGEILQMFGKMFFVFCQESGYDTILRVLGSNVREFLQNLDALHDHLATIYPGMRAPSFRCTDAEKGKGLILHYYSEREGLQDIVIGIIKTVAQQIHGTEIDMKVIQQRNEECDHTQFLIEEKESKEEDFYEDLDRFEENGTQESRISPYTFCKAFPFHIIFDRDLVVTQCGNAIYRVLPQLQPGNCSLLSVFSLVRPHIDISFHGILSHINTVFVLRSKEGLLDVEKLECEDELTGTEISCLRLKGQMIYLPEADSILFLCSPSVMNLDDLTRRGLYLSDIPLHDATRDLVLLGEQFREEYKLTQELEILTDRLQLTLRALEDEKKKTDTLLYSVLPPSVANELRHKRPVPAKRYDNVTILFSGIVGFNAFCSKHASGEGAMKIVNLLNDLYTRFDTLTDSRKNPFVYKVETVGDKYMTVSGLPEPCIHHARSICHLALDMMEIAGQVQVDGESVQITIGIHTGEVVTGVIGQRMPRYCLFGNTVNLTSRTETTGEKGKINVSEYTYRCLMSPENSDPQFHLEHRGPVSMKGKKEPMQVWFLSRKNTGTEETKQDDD
Procedure: In the course of studies in our laboratory we observed activation of sGC with the anti-epileptic drug lamotrigine 2 and inhibition with lamotrigine analogues sipatrigine 3 and 4, all at low millimolar concentrations (data not shown) (Fig. 1). These compounds were used as the starting point for a screening study to find new inhibitors of sGC. The strategy was to conduct several rounds of similarity searching and screening to identify the best inhibitors. Some synthetic studies were conducted on the best hit to explore the structure–activity relationships.

sGCcat = biological target: T2, sGCcat (Homo sapiens, UniProt Q02108+Q02153); experiment: SPR binding to catalytic domain of sGC; details: for sGCcat (SPR) binding norm. resp. (RU): Biacore T200, 25 °C; for binding to sGCcat (in words): discussion of Table 1
T2 construct: a smaller construct of the catalytic domain (sGCcat)
T2 sequence (Q02108 481-608 limits assumed): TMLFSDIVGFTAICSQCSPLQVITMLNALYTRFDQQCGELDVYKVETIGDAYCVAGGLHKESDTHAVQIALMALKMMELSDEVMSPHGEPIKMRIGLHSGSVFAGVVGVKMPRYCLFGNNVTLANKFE
T2 sequence (Q02153 421-554 limits assumed): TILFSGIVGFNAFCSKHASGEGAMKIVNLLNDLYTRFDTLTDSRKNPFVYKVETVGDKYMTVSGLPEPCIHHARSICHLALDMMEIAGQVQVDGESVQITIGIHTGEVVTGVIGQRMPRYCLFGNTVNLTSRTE
Procedure: We have previously described a surface plasmon resonance-based assay for the detection of binding of small molecules to full-length sGC and a smaller construct of the catalytic domain (sGCcat).[24] This assay was used to measure the binding of the compounds to sGCcat.[24] […] The position of the hydroxyl group can be changed whilst retaining binding strength and activity.
Surface plasmon resonance (SPR) experiments were performed with a Biacore T200 instrument at 25 °C. Data processing and analysis were performed using BIAevaluation software and Scrubber2. All sensorgrams were double referenced by subtracting the response in a reference flowcell and a blank sample. Materials and methods used were the same as previously published.[24]

purified bovine lung sGC = biological target: T3, purified bovine lung sGC (Bos taurus, UniProt P16068+P19687); experiment: Soluble guanylate cyclase activity assay (cGMP radioimmunoassay); format: biochemical; details: for inhibition at 100 µM: synthesised analogues, read-out: sGC activity% inhibition at 100 μM; for inhibition of sGC enzyme activity (in words): discussion of Table 1
T3 construct: screened at 100 μM against purified bovine lung sGC; purchased Enzo lifesciences ALX-202-039-C005; host or cells: bovine lung
T3 sequence (P19687 1-691): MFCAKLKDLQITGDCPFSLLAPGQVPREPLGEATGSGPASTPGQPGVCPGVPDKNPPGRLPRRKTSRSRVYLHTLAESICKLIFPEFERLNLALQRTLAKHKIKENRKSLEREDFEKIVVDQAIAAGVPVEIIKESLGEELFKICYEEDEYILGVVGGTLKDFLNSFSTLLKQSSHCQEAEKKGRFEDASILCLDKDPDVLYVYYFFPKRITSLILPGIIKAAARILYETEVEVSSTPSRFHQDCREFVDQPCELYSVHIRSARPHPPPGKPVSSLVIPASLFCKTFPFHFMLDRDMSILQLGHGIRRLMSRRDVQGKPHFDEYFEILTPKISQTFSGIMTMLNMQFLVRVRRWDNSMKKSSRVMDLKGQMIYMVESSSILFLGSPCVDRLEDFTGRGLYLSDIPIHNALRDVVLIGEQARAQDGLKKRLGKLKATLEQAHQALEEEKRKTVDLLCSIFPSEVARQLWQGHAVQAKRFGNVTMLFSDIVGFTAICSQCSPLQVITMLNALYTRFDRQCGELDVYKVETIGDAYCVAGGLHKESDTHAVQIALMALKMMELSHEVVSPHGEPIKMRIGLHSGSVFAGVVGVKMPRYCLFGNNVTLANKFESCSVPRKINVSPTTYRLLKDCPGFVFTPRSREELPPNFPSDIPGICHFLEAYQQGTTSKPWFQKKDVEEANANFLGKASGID
T3 sequence (P16068 1-619): T1 sequence (Q02153 1-619) with E126D, L290S, S574T, K615E, D618E, D619N
Procedure: Virtual screening was performed by similarity searches using MACCS fingerprints at 85% and 75% Tanimoto of commercial libraries and the selected compounds were screened at 100 μM against purified bovine lung sGC using diethylamine NONOate (30 nM) as the NO donor. Enzyme activity was determined by measuring cGMP production using a standard cGMP [^3H] radioimmunoassay.[21,22]
[…] Compounds were added at 100 μM prior to adding the NO donor DEA/NO (30 nM) or clamped NO concentrations. cGMP generation was allowed to proceed for two minutes, after which aliquots were withdrawn and inactivated by boiling in 50 mM Tris, 4 mM EDTA buffer. cGMP formation was measured by a standard radioimmunoassay.

SMILES	effect on sGC (sGC)	sGCcat (SPR) binding norm. resp. (RU) (sGCcat)	binding to sGCcat (in words) (sGCcat)	inhibition at 100 µM (purified bovine lung sGC)	inhibition of sGC enzyme activity (in words) (purified bovine lung sGC)
Nc1nnc(-c2cccc(Cl)c2Cl)c(N)n1 [Compound 2, lamotrigine]	activation				
CN1CCN(c2ncc(-c3cc(Cl)cc(Cl)c3Cl)c(N)n2)CC1 [Compound 3, sipatrigine]	inhibition				
Nc1nc(N)c(-c2cc(Cl)cc(Cl)c2Cl)c(C(F)(F)F)n1 [Compound 4]	inhibition				
Oc1ccc(Nc2nc3ccc(C(F)(F)F)cc3nc2Nc2ccc(O)cc2)cc1 [Compound 21, 4,4′-((6-(Trifluoromethyl)quinoxaline-2,3-diyl)bis(azanediyl))diphenol]		6.4 ± 0.5 RU	higher binding	44.4%	
Oc1cccc(Nc2nc3ccc(C(F)(F)F)cc3nc2Nc2cccc(O)c2)c1 [Compound 22, 3,3′-((6-(Trifluoromethyl)quinoxaline-2,3-diyl)bis(azanediyl))diphenol]		3.0 ± 0.5 RU		21.1%	
N#Cc1ccc2nc(Nc3ccc(O)cc3)c(Nc3ccc(O)cc3)nc2c1 [Compound 23, 2,3-Bis((4-hydroxyphenyl)amino)quinoxaline-6-carbonitrile]		4.5 ± 2 RU	bind to the receptor		do not inhibit the enzyme activity
N#Cc1ccc2nc(Nc3cccc(O)c3)c(Nc3cccc(O)c3)nc2c1 [Compound 24, 2,3-Bis((3-hydroxyphenyl)amino)quinoxaline-6-carbonitrile]		10.5 ± 0.5 RU	bind to the receptor		do not inhibit the enzyme activity
Oc1ccc(Nc2nc3ccc(Cl)cc3nc2Nc2ccc(O)cc2)cc1 [Compound 25, 4,4′-((6-Chloroquinoxaline-2,3-diyl)bis(azanediyl))diphenol]		9.7 ± 0.5 RU	bind to the receptor		do not inhibit the enzyme activity
Oc1cccc(Nc2nc3ccc(Cl)cc3nc2Nc2cccc(O)c2)c1 [Compound 26, 3,3′-((6-Chloroquinoxaline-2,3-diyl)bis(azanediyl))diphenol]		9.0 ± 0.4 RU	bind to the receptor		do not inhibit the enzyme activity
Nc1ccc2nc(Nc3ccc(O)cc3)c(Nc3ccc(O)cc3)nc2c1 [Compound 29, 4,4′-((6-Aminoquinoxaline-2,3-diyl)bis(azanediyl))diphenol]		9.9 ± 0.2 RU	higher binding; also recorded: bind to the receptor		do not inhibit the enzyme activity
